Legend:
retinal explants = assay: Ex vivo retinal explant neuronal tissue repair; assay type: cell-based, C57BL/6 mice; settings: P8 mouse retinal explants, 9 μM or 90 μM, five days, vs ddH2O
Experimental: Retinal explants were obtained from C57BL/6 mice at postnatal day 8. Following the sacrifice of mice, the eyes were enucleated, and the eyeballs were dissected using forceps and microscissors to separate the retina and remove the vitreous. Subsequently, the dissected retinas were quartered and trimmed along the edges of the tissue using microscissors. Each quarter was cultured on an 18 mm round coverslip and placed in a 12-well plate inside a CO2 incubator at 35° C. for five days. The culture medium was replaced daily with fresh medium containing either 9 μM or 90 μM Isorhoifolin. On the fifth day of culture, the retinal tissues were fixed with a mixture of 0.1% glutaraldehyde solution and 4% paraformaldehyde at room temperature for one hour. Immunostaining was performed using primary antibodies against the axonal marker beta-III-tubulin (TUJ1) and DAPI to label neurons and cell nuclei, respectively. Images were acquired using a super-resolution upright confocal microscope (LSM-800, Carl Zeiss). ImageJ software was utilized for image analysis, wherein the tissue boundary was delineated to calculate the perimeter and the area of neuronal fibers outside the tissue boundary. The ratio of neuronal fiber area to tissue boundary perimeter was then calculated to determine the unit perimeter neuronal fiber length.

Neuro2a cells = assay: CellTiter-Glo cell viability assay (cytotoxicity); assay type: cell-based
From the text: Utilizing the CellTiter-Glo cell viability assay to assess the toxicity of Isorhoifolin on Neuro2a cells. CellTiter-Glo cell viability assay can detect the level of ATP in neuro2a cells after treatment of compounds to evaluate the survival rate.

hippocampal neurons = assay: In vitro neural repair assay, injured hippocampal neurons (gap closure rate); assay type: cell-based; settings: E18 rat hippocampal neurons, 72 hours
Experimental: The experimental procedure is as depicted in FIG. 1. Removed the brain of E18 rat embryos and dissected into cortex and hippocampus. Subsequently, the cortex and hippocampus were separated into cortical neurons and hippocampal neurons, respectively. Then, seeded hippocampal neurons on 48-well plates. The first day that neurons are cultured in vitro is defined as day in vitro 0 (DIV0). On DIV2, Cytosine beta-D-arabinoside (AraC) was added to neurons to inhibit the proliferation of glial cells. On DIV8, neurons were injured using pipette tips (p10 tips) and various concentrations of Isorhoifolin was added. After 72 hours, immunostaining was performed. TUJ1 antibody was used to label neuronal cells to observe the regrowth of neurites. Images were taken using Observer Z1 microscope. As depicted in FIG. 2, the degree of neuronal axon regeneration was quantified using the gap closure rate. White dashed lines indicate the borders of injury gap, the central black area represents the region scratched by the tip of a pipette tips. The newly regenerated neurites grow from the white dashed lines toward the center of the gap. To quantify the results, we measured the lengths of gap (Lg) and distance between regenerated neurites (Ln) every 50 μm. […] Gap closure rate is calculated using the formula: (Lg−Ln)/Lg. […]

injured brain sections = assay: Ex vivo 3D brain tissue slice culture, scalpel injury; assay type: cell-based; settings: E18 rat brain slices 350 μm, added every day, 96 hours, vs ddH2O
From the text: For the experiment, we took out the brain of E18 rat embryos and embedded in low-melting agarose. The brains were sectioned using Leica microtome VT100. The tissue sections were collected with 350 μm thick and injured using a scalpel. And placed them in inserts within a 6-well plate. This culturing method allows the brain slices to be exposed to both medium and air, facilitating a more realistic representation of the interactions between neuronal cells and other brain cells, as well as the three-dimensional structure, compared to in vitro culture. ddH2O or Isorhoifolin was added to injured brain sections every day. After 96 hours, immunostaining was performed. TUJ1 antibody was used to label neuron cells. GFAP antibody was used to label glial cells. DAPI was used to label nucleus. The experimental procedure for the Isorhoifolin derivative Narirutin is also depicted in FIG. 6. Took out the brain of E18 rat embryos and embedded in low-melting agarose. The brains were sectioned using Leica microtome VT100. The tissue sections were collected with 350 μm thick and injured using a scalpel. And placed them in inserts within a 6-well plate. […]

[1] = system: motor coordination after brain injury; assay: Controlled cortical impact (CCI) brain injury model, horizontal bar test; assay type: in vivo; settings: mice, 14 or 140 μg/kg intranasal at 0, 2, 4, 6, 8, 10, 12 Dpi, tested 1, 3, 6, 10, 13 Dpi, vs ddH2O and Sham
Experimental: Using the horizontal bar test, mice were placed on brass rods positioned at a height of 49 cm above the ground, with lengths of 38 cm and diameters of 2 mm, 4 mm, and 6 mm. Mice were required to grasp the brass rod with their forepaws, and their ability to move and coordinate was assessed by measuring the time spent on the brass rod and whether they reached the platform at the end of the rod. Evaluation criteria were as follows: 1 point for 1-5 seconds, 2 points for 5-10 seconds, 3 points for 10-20 seconds, 4 points for 20-30 seconds, and 5 points for over 30 seconds or reaching the platform. The experimental model, as depicted in FIG. 10, involved pre-training at −5, −3, and −1 days post injury (Dpi) (5, 3, and 1 day(s) before brain injury). At 0 Dpi, the controlled cortical impact model (CCI model) was used to induce brain injury in mice. Subsequently, at 0, 2, 4, 6, 8, 10, and 12 Dpi, mice were administered Isorhoifolin at doses of 14 or 140 μg/kg via intranasal delivery. Horizontal bar experiments were conducted at 1, 3, 6, 10, and 13 Dpi.

cortical neurons = assay: In vitro neural repair assay, injured cortical neurons (gap closure rate); assay type: cell-based; settings: E18 rat cortical neurons, injured DIV8, 10 nM and 100 nM, 72 hours, standardized against 0.1% DMSO
From the text: As depicted in FIG. 2, the degree of neuronal axon regeneration was quantified using the gap closure rate. White dashed lines indicate the borders of injury gap, the central black area represents the region scratched by the tip of a pipette tips. The newly regenerated neurites grow from the white dashed lines toward the center of the gap. To quantify the results, we measured the lengths of gap (Lg) and distance between regenerated neurites (Ln) every 50 μm. After unbiasedly drawing ten lines of equal distance, the average distance between neurites is taken: Length of gap between regenerated neurons (Ln). Gap closure rate is calculated using the formula: (Lg−Ln)/Lg. Scale bar=100 μm. Images were taken using Observer Z1 microscope. The experimental procedure is also as depicted in FIG. 1. Removed the brain of E18 rat embryos and dissected into cortex and hippocampus. Subsequently, the cortex and hippocampus were separated into cortical neurons and hippocampal neurons, respectively. Then, seeded cortical neurons on 48-well plates. The first day that neurons are cultured in vitro is defined as day in vitro 0 (DIV0). On DIV2, Cytosine beta-D-arabinoside (AraC) was added to neurons to inhibit the proliferation of glial cells. On DIV8, neurons were injured using pipette tips (p10 tips) and 10 nM and 100 nM Narirutin was added. […]

Compound	recovery of injured retinal neurons (unit perimeter neuronal fiber length) (retinal explants)	toxicity towards Neuro2a cells (Neuro2a cells)	IC50 (Neuro2a cells; Mus musculus, N2a, CellTiter-Glo, read-out: IC50 (cell viability, ATP level))	neurite regrowth after injury (gap closure rate) (hippocampal neurons; injured DIV8, various concentrations, TUJ1 staining)	neurite outgrowth after injury in ex vivo 3D brain slice culture (injured brain sections)	motor coordination recovery (horizontal bar test score) [1]	neurite regeneration after injury (gap closure rate) (hippocampal neurons; injured DIV8, 1 nM and 10 nM, standardized against 0.1% DMSO)	neurite regeneration after injury (gap closure rate) (cortical neurons)
C[C@@H]1O[C@@H](OC[C@H]2O[C@@H](Oc3cc(O)c4c(=O)cc(-c5ccc(O)cc5)oc4c3)[C@H](O)[C@@H](O)[C@@H]2O)[C@H](O)[C@H](O)[C@H]1O [Isorhoifolin]	significant recovery of injured retinal neurons	low toxicity	~11.6 mM	promotes neurite regrowth after injury in hippocampal neurons	promotes neurite outgrowth after injury in ex vivo 3D brain slice culture	motor coordination was similar to that of the Sham (surgery control) group	–	–
Narirutin	–	–	–	–	promotes neurite outgrowth after injury in ex vivo 3D brain slice culture	–	effectively promotes dendritic outgrowth in hippocampal neurons	effectively promotes dendritic outgrowth in cortical neurons
